# Source: patent publication US20220332799A1, “HERV INHIBITORS FOR USE IN TREATING TAUOPATHIES” (Deutsches Zentrum Für Neurodegenerative Erkrankungen E.V. …, priority 2019, published 2022)
# “Also recorded” adds a separate entry of the source.
# Key:
# MuERV Env = assay: Western blot of Env maturation in donor cell lysates and EVs; format: cell-based, mouse; conditions: donor cells 10 μM, 3 days, vs DMSO
# Protocol: Cell lysates and EVs derived from Amprenavir-treated donor cell clone N2a NM-HA^agg s2E were analyzed for Env maturation by Western blot. Amprenavir-treated cell lysate and EVs lack the proteolytical mature Env transmembrane (TM) fragment p15E required for receptor binding. Cleaved products and degradation intermediates were detected by anti-MuLV virus antibody ABIN457298. Presumed bands representing Env precursor protein (gp85 and gp70), Pr15E or cleavage product (p15E) are indicated. • b., c. Aggregate induction in recipient N2a NM-GFP^sol cells cocultured with Amprenavir-pretreated N2a NM-HA^agg s2E donor cells or (c) in recipient cells exposed to EVs derived from Amprenavir-treated donors. • d. EVs from donor clone N2a NM-HA^agg s2E were incubated with increasing concentrations of anti-Env antibody mAb83A25 for 1 h and added to recipient N2a NMGFP^sol cells for 16 h. • e, g. Donor clone N2a NM-HA^agg s2E was transfected with three individual siRNAs (SEQ ID NO 14-19) against endogenous Env (e) or (SEQ ID NO 20-25) against Gag (g). […] MuERV Env and Gag protein levels were analyzed by Western blot. • l. […] Recipient N2a NM-GFP^sol cells were transfected with two siRNAs against XPR1 (SEQ ID NO 26-29), siRNA against mCat-1 (SEQ ID NO 30 and 31) or with non-silencing siRNA control. mRNA knock-down was assessed 48 h post siRNA transfection by quantitative PCR. […]
# HEK NM-mCherry^sol cells = assay: NM-mCherry aggregate induction by coculture with T47D NM-GFP^agg donor cells; format: cell-based, human; conditions: 10 μM, donors 1 d pretreated, coculture 1 d in presence of drug; vs DMSO
smiles,measurement,setting,value
CC(C)CN(C[C@@H](O)[C@H](Cc1ccccc1)NC(=O)O[C@H]1CCOC1)S(=O)(=O)c1ccc(N)cc1 [Amprenavir],Env protein maturation to TM p15E,MuERV Env,"efficiently inhibited Env protein maturation to TM p15E; also recorded: inhibits maturation of endogenous MuERV proteins, including Env"
same,number of recipient cells with induced NM-mCherry aggregates,HEK NM-mCherry^sol cells,reduced the number of recipient cells with induced NM-mCherry aggregates compared to the DMSO control; also recorded: impairs NM-mCherry aggregate induction
